We go through one compound from US20230090094A1, “HEMP EXTRACT FOR TREATMENT OF PAIN, CANCER AND EPILEPSY IN ANIMALS” (ElleVet Sciences, priority 2019, published 2023).

Series [1] in a line: Single-dose oral pharmacokinetics of CBD oil in beagles. The series is classed as in vivo, dogs. The note with it: industrial hemp. The method, then: The dogs were fed two hours after dosing. […] Attitude, behavior, proprioception, and gait were subjectively evaluated at each time point during free running/walking and navigation around standard traffic cones (weaving). […] Blood samples were obtained via jugular venipuncture and transferred to a coagulation tube for 20 minutes. Samples were centrifuged (VWR, Clinical Centrifuge) at 3,600×g for 10 minutes; serum was removed and stored at −80° C. until analysis using liquid chromatography-mass spectrometry (LC-MS) at Colorado State University Core Mass Spectrometry facility.
CBD was extracted from canine serum using a combination of protein precipitation and liquid-liquid extraction using n-hexane, with minor modifications for microflow ultra-high pressure liquid chromatography (UHPLC). Briefly, 0.05 ml of canine serum was subjected to protein precipitation in the presence of ice-cold acetonitrile (80% final concentration), spiked with deuterated CBD as the internal standard (0.06 mg/ml, CDB-d3 Cerilliant, Round Rock, Tex., USA). 0.2 ml of water was added to each sample prior to the addition of 1.0 ml of hexane to enhance liquid-liquid phase separation. Hexane extract was removed and concentrated to dryness under laboratory nitrogen. Prior to LC-MS analysis, samples were resuspended in 0.06 mL of 100% acetonitrile. A standard curve using the CBD analytical standard was prepared in canine serum non-exposed to CBD and extracted as above.
From the UHPLC-QQQ-MS data, peak areas were extracted for CBD detected in biological samples and normalized to the peak area of the internal standard CBD-d3, in each sample using Skyline as well as an in-house R Script (www.r-project.org). […] Pharmacokinetic variables were estimated by means of non-compartmental analysis, utilizing a pharmacokinetic software package (PK Solution, version 2.0, Montrose, Colo., USA).

The nature of series [2]: Feline serum cannabidiol quantification and pharmacokinetics (LC-MS/MS). It counts as in vivo, cats. Particulars: for Cannabidiol in serum: individual cats, replicates A/B, ppb = ng/mL, LOD 1.9, LOQ 6.2. The method, then: On the first day of dosing, blood was collected for a PK analysis from 6 of the 8 cats. The most cooperative cats were selected for the PK analysis. […] Samples were placed into a red top clotting tube with no serum separator. […] The harvested serum was placed in cyrovials stored at −70° C. Each tube was labeled with the cat id, date of collection and collection time point. Samples were shipped overnight on dry ice to the Proteomics & Metabolomics Facility at Colorado State University.
Aliquots of feline serum were delivered to the facility on dry ice and stored at −80° C. upon receipt. […] of cold (−20C.) 100% Acetonitrile (spiked with 60 ng/mL of d3-CBD) was added to each sample and vortexed at room temperature for 5 minutes. 200 μL of water was added and vortexed for an additional 5 minutes. 1 ml of 100% hexane was then added to each sample and vortexed for a final 5 minutes. […] The upper hexane layer was transferred to new-labeled glass vials (˜900 uL per sample), carefully avoiding the middle and lower layers.
An 8 point standard curve of CBD was generated in matrix background using a blank serum. Concentrations ranged from 0 ng/mL 1000 ng/mL (3.2X dilution series). 50 uL of each spiked serum sample was extracted as above.
LC-MS/MS was performed on a Waters Acquity M-Class UPLC coupled to a Waters Xevo TQ-S triple quadrupole mass spectrometer. […] Flow rate was 3.0 μL/min and injection volume was 2.0 μL. Samples were held at 6° C. in the autosampler, and the column was operated at 70° C. The MS was operated in selected reaction monitoring (SRM) mode, where a parent ion is selected by the first quadrupole, fragmented in the collision cell, then a fragment ion selected for by the third quadrupole. Product ions, collision energies, and cone voltages were optimized for each analyte by direct injection of individual synthetic standards. Inter-channel delay was set to 3 ms. The MS was operated in positive ionization mode with the capillary voltage set to 3.6 kV. […] Desolvation gas flow was […], cone gas flow was 150 L/hr, and collision gas flow was 0.2 mL/min. Nebulizer pressure (nitrogen) was set to 7 Bar. Argon was used as the collision gas.
Each target analyte was visually inspected for retention time and peak area integration. Peak areas were extracted for target compounds detected in biological samples and normalized to the peak area of the appropriate internal standard in each sample using in-house R Script (TQS-tools). CBD concentrations were calculated in nanograms per milliliter of extract (0.06 mL) and then back calculated to nanograms per mL of serum (0.05 mL of serum).
LOD are calculated based on the standard deviation of the response (Sy) of the 0 point calibration standard (i.e. 0 ng/mL CBD as an estimate on noise) and the slope of the calibration curve (S) at levels approximating the LOD according to the formula: LOD=3*(Sy/S). LOQ=10*(Sy/S).

SMILES strings stand for the structures. Where “and” joins values, the source holds several entries; their conditions need not be identical. Equal entries are not always repeated. Marks after values point to notes of the source that are not given here.

By AUC(0-t) is commonly meant exposure summed from dosing to a finite time, without extrapolation to infinity. A lower AUC(0-t) goes with low exposure. Regarding `C=C(C)[C@@H]1CCC(C)=C[C@H]1c1c(O)cc(CCCCC)cc1O` [cannabidiol], the Average retention time in series [1] (dosing at 2 mg/kg) amounted to 6 h. Also, in series [1] (dosing at 2 mg/kg, average 20 mg total dose), the Peak concentration entry is reported as “approximately 100 ug/kg”. The Total absorption result in series [1] (oral dosing at 2 mg/kg) is “less than 20%”. For the same compound, the Cannabidiol in serum in series [2] (60 min after CBD oil 2 mg/kg oral) is 24.44 ppb and 26.32 ppb and 44.14 ppb and 45.40 ppb and 28.10 ppb and 31.02 ppb and 378.59 ppb and 535.08 ppb and 32.85 ppb and 34.26 ppb; in series [2] (4 hr after CBD oil 2 mg/kg oral), 1.69** ppb and 1.82** ppb and 1.53** ppb and 51.48 ppb and 68.31 ppb; in series [2] (8 hr after CBD oil 2 mg/kg oral) it was 65.42 ppb and 79.30 ppb and 1.82** ppb and 2.22* ppb and 44.23 ppb and 46.05 ppb and 365.18 ppb and 376.28 ppb and 71.64 ppb and 79.59 ppb; in series [2] (24 hr after CBD oil 2 mg/kg oral) it was 42.76 ppb and 44.88 ppb and 141.92 ppb and 147.74 ppb and 10.28 ppb and 10.31 ppb and 13.95 ppb and 17.17 ppb and 0.18** ppb and 0.36** ppb and 33.12 ppb and 35.88 ppb. Also, in series [2] (serum, po, 2 mg/kg), the exposure AUC(0-t) turned out to be 154 ng·h/mL.
